Laboratory results taken from publication PMC8119466, “A screen of FDA-approved drugs identifies inhibitors of protein tyrosine phosphatase 4A3 (PTP4A3 or PRL-3)” (Scientific Reports, 2021).
Counter-ions that a name gives are not always drawn. Like-named read-outs stand apart in the source and are kept apart here. Starred links: 1 amine or outer side, 2 acyl side, 3 side chain; linkers in the order of their positions; H or OH if unused. Positions of bridges follow the written chain, without caps; N, C: chain ends. Non-standard residues stand in square brackets, D forms with d. Residues, ends and D or L forms follow the SMILES beside them. *: point of attachment. pTerphenylCO(4''-OnC5H11) = CCCCCOc1ccc(-c2ccc(-c3ccc(C(=O)*)cc3)cc2)cc1; Orn(4R-OH,5R-OH) = O=C([C@H](C[C@@H](O)[C@@H](O)N[*:3])N[*:1])[*:2]; hTyr(3S-OH,4S-OH) = N[C@H](C(=O)O)[C@H](O)[C@@H](O)c1ccc(O)cc1; Pro(3S-OH,4S-Me) = C[C@H]1CN[C@H](C(=O)O)[C@H]1O; Hyp = O=C(O)[C@@H]1C[C@@H](O)CN1

Key:
Assay type in all cases: biochemical
[1] = molecular target: T1, recombinant PRL-1 (Homo sapiens, UniProt Q93096); experiment: In vitro phosphatase assay (DiFMUP hydrolysis), PRL-1; also: test concentration or dose not given here
T1 construct: 6xHis (N, cleaved yes); made in house; host or cells: E. coli One Shot BL21 Star
T1 sequence (Q93096 1-173): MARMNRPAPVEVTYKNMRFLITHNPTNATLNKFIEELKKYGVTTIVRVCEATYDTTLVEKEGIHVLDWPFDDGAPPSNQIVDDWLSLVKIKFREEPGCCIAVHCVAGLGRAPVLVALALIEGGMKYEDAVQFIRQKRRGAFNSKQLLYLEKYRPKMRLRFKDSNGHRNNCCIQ

[2] = molecular target: T2, recombinant PRL-2 (Homo sapiens, UniProt Q12974); experiment: In vitro phosphatase assay (DiFMUP hydrolysis), PRL-2;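 also: PRL-2 activity read as DiFMUP hydrolysis after 20 min at room temperature with drug, enzyme first pre-reduced at 4 °C for 20 min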
T2 construct: 6xHis (N, cleaved yes); made in house; host or cells: E. coli One Shot BL21 Star
T2 sequence (Q12974 1-167): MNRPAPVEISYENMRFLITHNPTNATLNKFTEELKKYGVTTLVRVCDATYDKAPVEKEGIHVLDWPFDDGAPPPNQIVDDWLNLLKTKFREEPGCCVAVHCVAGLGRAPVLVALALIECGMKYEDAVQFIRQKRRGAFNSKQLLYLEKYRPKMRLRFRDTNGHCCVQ

[3] = molecular target: T3, recombinant PRL-3 (Homo sapiens, UniProt O75365); experiment: In vitro phosphatase assay (DiFMUP hydrolysis), PRL-3; also: test concentration or dose not given here
T3 construct: 6xHis (N, cleaved yes); made in house; host or cells: E. coli One Shot BL21 Star
T3 sequence (O75365 whole entry): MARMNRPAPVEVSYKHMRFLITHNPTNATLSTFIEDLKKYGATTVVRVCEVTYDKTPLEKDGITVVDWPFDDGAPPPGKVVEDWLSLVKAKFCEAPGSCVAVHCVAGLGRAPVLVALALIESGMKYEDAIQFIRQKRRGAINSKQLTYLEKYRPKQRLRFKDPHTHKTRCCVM

[4] = FDA-approved drug screen, compared to DMSO
[5] = FDA-approved drug screen, activity compared to DMSO

Row | SMILES | % Phosphatase Activity (compared to DMSO) PRL-1 [1, 4] | % Phosphatase Activity (compared to DMSO) PRL-2 [2, 4] | % Phosphatase Activity (compared to DMSO) PRL-3 [3, 4] | further results
1 | Cc1cc(/C=C/C#N)cc(C)c1Nc1ccnc(Nc2ccc(C#N)cc2)n1 [Rilpivirine] | 139% | 116% | 136% | –
2 | CCN1CCN(C(=O)N[C@@H](C(=O)N[C@@H]2C(=O)N3[C@@H]2SC(C)(C)[C@@H]3C(=O)O)c2ccccc2)C(=O)C1=O [Piperacillin Sodium] | 86% | 91% | 73% | –
3 | CCCCCOc1ccc(-c2ccc(-c3ccc(C(=O)N[C@H]4C[C@@H](O)[C@@H](O)NC(=O)[C@@H]5[C@@H](O)[C@@H](C)CN5C(=O)[C@H]([C@@H](C)O)NC(=O)[C@H]([C@H](O)[C@@H](O)c5ccc(O)cc5)NC(=O)[C@@H]5C[C@@H](O)CN5C(=O)[C@H]([C@@H](C)O)NC4=O)cc3)cc2)cc1 [Anidulafungin (LY303366)] ({pTerphenylCO(4''-OnC5H11)}-[Orn(4R-OH,5R-OH)]T[Hyp][hTyr(3S-OH,4S-OH)]T[Pro(3S-OH,4S-Me)]; lactam 1-C) | 569% | 568% | 623% | –
4 | CN(C)CCCN1c2ccccc2CCc2ccc(Cl)cc21 [Clomipramine HCl] | 108% | 114% | 96% | –
5 | CCC/N=C1\S/C(=C\c2ccc(OC[C@H](O)CO)c(Cl)c2)C(=O)N1c1ccccc1C [Ponesimod] | 88% | 79% | 86% | –
6 | O=C(O)c1ccccc1Nc1cccc(C(F)(F)F)c1 [Flufenamic acid] | 81% | 85% | 69% | –
7 | CC(c1cc2ccccc2s1)N(O)C(N)=O (stereo not drawn) [Zileuton] | – | – | – | % Phosphatase Activity (compared to DMSO) PRL-1 [1, 5]: 96%; % Phosphatase Activity (compared to DMSO) PRL-2 [2, 5]: 86%; % Phosphatase Activity (compared to DMSO) PRL-3 [3, 5]: 87%
8 | C[C@]12CC[C@@H]3c4ccc(O)cc4CC[C@H]3[C@@H]1CC[C@@H]2O [Estradiol] | 92% | 113% | 84% | –
9 | O=C(NCCO[N+](=O)[O-])c1cccnc1 [Nicorandil] | 86% | 103% | 91% | –
10 | COc1cc([C@@H]2c3cc4c(cc3[C@@H](O[C@@H]3O[C@@H]5CO[C@@H](c6cccs6)O[C@H]5[C@H](O)[C@H]3O)[C@H]3COC(=O)[C@H]23)OCO4)cc(OC)c1O [Teniposide] | – | – | – | % Phosphatase Activity (compared to DMSO) PRL-1 [1, 5]: 95%; % Phosphatase Activity (compared to DMSO) PRL-2 [2, 5]: 98%; % Phosphatase Activity (compared to DMSO) PRL-3 [3, 5]: 97%
11 | CN[C@@H]1[C@@H](O)[C@@H](O[C@@H]2[C@@H](O)[C@H](O[C@H]3OC(CN)=CC[C@H]3N)[C@@H](N)C[C@H]2N)OC[C@]1(C)O [Sisomicin sulfate] | – | – | – | % Phosphatase Activity (compared to DMSO) PRL-1 [1, 5]: 83%; % Phosphatase Activity (compared to DMSO) PRL-2 [2, 5]: 84%; % Phosphatase Activity (compared to DMSO) PRL-3 [3, 5]: 107%
12 | CCn1cc(C(=O)O)c(=O)c2cc(F)c(N3CCNC(C)C3)c(F)c21 (stereo not drawn) [Lomefloxacin HCl] | 123% | 121% | 110% | –
13 | CCN(CC)C(=O)/C(C#N)=C/c1cc(O)c(O)c([N+](=O)[O-])c1 [Entacapone] | 94% | 87% | 75% | –
14 | Clc1ccc(C(Cn2ccnc2)OCc2ccsc2Cl)c(Cl)c1 (stereo not drawn) [Tioconazole] | – | – | – | % Phosphatase Activity (compared to DMSO) PRL-1 [1]: 83%; % Phosphatase Activity (compared to DMSO) PRL-2 [2]: 92%; % Phosphatase Activity (compared to DMSO) PRL-3 [3]: 84%
